Experimental data taken from article PMC4844572 (SpringerPlus, 2016).

Test system: EstSTR1
Type: biochemical, uncultured bacterium
Settings: competitive against 100 μM cephalothin; 10 mM MES pH 6.8, bovine serum albumin 20 μg/ml, enzyme 396 μM as printed; stands in Km column, footnote gives Ki

Compound: CO/N=C(\C(=O)N[C@@H]1C(=O)N2C(C(=O)O)=C(COC(C)=O)CS[C@H]12)c1csc(N)n1 [TAX, cefotaxime]
- Km (μM) / Wild: 0.90 ± 0.004 µM
